Where two headings read alike, the source gives them in different places.
Tests used:
MIA PaCa-2 cells = assay: 1,536-well high-content imaging ALDEFLUOR assay, MIA PaCa-2; type: cell-based, human; conditions: for Activity in ALDEFLUOR assay, MIA PaCa-2: semi-automated, active = high quality concentration response curve and >50% efficacy, up to 45.8 μM
Experimental: (§1) To miniaturize the assay into a 1536-well format amenable to qHTS, we chose MIA PaCa-2 and HT-29 because of their high levels of ALDH1A1(Fig 1A). Utilizing the 8-step protocol described by Ming et al. as a starting point, we developed a “semi-automated” protocol described in S1 Table. Briefly, we plated 1,000 cells in a volume of 5 μL/well into black-optical quality clear bottom 1,536-well plates, and allowed cells to attach overnight. Culture media was subsequently removed by inverting and centrifuging plates using a plate adaptor as previously described and replaced with 5 μL of a solution of either 500 or 100 nM BAAA substrate in ALDEFLUOR buffer. To identify cells based on nuclear staining, we also included 0.5 nM Hoechst 33342 in the above buffer. […] After incubating the plate for 30 minutes at 37°C, 5% CO2, 85% RH, the remaining substrate was removed by centrifugation as above and replaced with 3 μL of ALDEFLUOR buffer. Fluorescence was subsequently imaged using the IN Cell Analyzer 2200 high-content widefield fluorescence based imager and the resulting images were quantified using the IN Cell Investigator v1.6.2 analysis software (see Experimental Procedures for analysis details).
(§2) The ALDEFLUOR kit was purchased from […] Technologies (Vancouver, Canada; #01700). Cells (5 μL) were dispensed into black, optical quality (cyclic olefin copolymer) clear bottom, medium binding TC treated 1,536-well plates (Aurora Microplates, Whitefish MT) using a Multidrop Combi dispenser (ThermoFisher) and incubated overnight (37°C, 5% CO2, 85% RH). Media was subsequently removed by centrifuging plates upside down using a plate adaptor to collect media. A solution of BAAA substrate ([…] Technologies) and Hoechst 33342 (ThermoFisher, final concentrations of 500 nM and 0.5 nM, respectively) in ALDEFLUOR buffer ([…] Technologies #01700) was dispensed onto cells using a Multidrop Combi followed by immediate transfer (23 nL) of compound or control solutions using a Wako Pin-tool (final percentage of DMSO in the cell plates was 0.5%). Unless otherwise noted, all compounds were assayed as 16-point dilutions spanning a final concentration range of 1.4 nM to […]. […] Cells were incubated for 30 minutes or the indicated amount of time at 37°C, 5% CO2, 85% RH to allow the conversion of BAAA into BAA. Supernatant was subsequently removed by centrifugation as described above, then ALDEFLUOR buffer (3 μl) was dispensed by Multidrop Combi before imaging on an IN Cell 2200 (GE Healthcare).
(§3) The above assay was modified for an online robotic screening system. After cell plating and overnight incubation, 4 μL of media were removed using a 64-tip metal aspirator head on a Wako aspirator station, leaving 1 μL remaining in the well, followed by a 4 μL dispense of BAAA and Hoechst 33342 in ALDEFLUOR buffer, for a final concentration of 500 nM and 0.5 nM, respectively. Immediately following the dispense, 23 nL of compound or control solutions were transferred using a Wako Pin-tool. Cells were incubated for 30 minutes at 37°C, 5% CO2, 85% RH, followed by a 4 μL media removal using the Wako aspirator, and a subsequent 3 μL addition of ALDEFLUOR buffer. Plates were then immediately read on the IN Cell 2200 as described below.
(§4) For images captured on the IN Cell 2200 widefield automated microscope, a 10x 0.45 NA Plan Apo objective lens was used to capture the entire well of the 1,536-well plate using standard DAPI (390/18x, 432/48m) and FITC (475/28x, 525/48m) filter sets at 50 msec and 100 msec exposures, respectively. Images were subsequently analyzed using IN Cell Investigator v1.6.2 analysis software’s canned Multi-Target Analysis algorithm (GE Healthcare). Hoechst stained nuclei were identified using top hat segmentation with a minimum area of 75 μm^2 and sensitivity of 93. […]

HT-29 cells = assay: 1,536-well high-content imaging ALDEFLUOR assay, HT-29; type: cell-based, human; conditions: for IC50: read-out: Aldefluor IC50 HT-29; for Activity in ALDEFLUOR assay, HT-29: semi-automated, active = high quality concentration response curve and >50% efficacy, up to 45.8 μM
Experimental: as §1, §2, §3, §4

[1] = Homo sapiens, MIA PaCa-2, 0.5 h, validation set, semi-automated protocol, 16-point dilution, 1,000 cells/well, 500 nM BAAA, 30 min, read-out: Aldefluor IC50 MIA PaCa-2
[2] = validation set, semi-automated protocol, 16-point dilution, 1,000 cells/well, 500 nM BAAA, 30 min, read-out: Aldefluor IC50 MIA PaCa-2
[3] = Homo sapiens, HT-29, 0.5 h, validation set, semi-automated protocol, 16-point dilution, 1,000 cells/well, 500 nM BAAA, 30 min
[4] = validation set, semi-automated protocol, 16-point dilution, 1,000 cells/well, 500 nM BAAA, 30 min

| Molecule | IC50 (MIA PaCa-2 cells; [2]) [µM] | IC50 (HT-29 cells; [4]) [µM] | Activity in ALDEFLUOR assay, MIA PaCa-2 (MIA PaCa-2 cells) | Activity in ALDEFLUOR assay, HT-29 (HT-29 cells) | also measured |
| --- | --- | --- | --- | --- | --- |
| CC(C)=CCCC(C)=CC=O (mixture of isomers) [Citral] | 27.8 | 26.6 |  |  | IC50 (MIA PaCa-2 cells; [1]): ~27 µM; IC50 (HT-29 cells; [3]): ~27 µM |
| COc1ccc(C(=O)CCN(C)C)cc1F [Aldi-2] | 18 | 17.5 |  |  |  |
| CC(C)(C)c1ccc(S(=O)(=O)/C=C/C#N)cc1 [Bay-11-7085] | 20 | 14.3 |  |  |  |
| Cc1nc2ccccc2n1S(=O)(=O)c1ccc(F)cc1 [CB7] |  |  | tested negative | tested negative |  |
| CCOc1ccc(NCC(=O)Nc2ccc(Cl)cc2C)cc1 [CID 725345] | 9.46 | 14.5 |  |  |  |
| COc1cccc2cc(C(=O)CC3(O)C(=O)N(Cc4ccccc4)c4ccccc43)c(=O)oc12 (stereo not drawn) [CID 2929292] |  |  | tested negative | tested negative |  |
| CCN(CC)c1ccc(C=O)cc1 [DEAB, 4-N,N-diethylaminobenzaldehyde] | 3.44 | 1.69 |  |  |  |
| O=c1c(-c2ccc(O)cc2)coc2cc(O[C@@H]3O[C@H](CO)[C@@H](O)[C@H](O)[C@H]3O)ccc12 [Daidzin] |  |  | tested negative | tested negative |  |
| CCN(CC)C(=S)SSC(=S)N(CC)CC [Disulfiram] |  |  |  |  | IC50 (MIA PaCa-2 cells; [1]): 11 µM; IC50 (HT-29 cells; [3]): 10.9 µM |
| Cc1cc2c(C(C)C)c(O)c(O)c(C=O)c2c(O)c1-c1c(C)cc2c(C(C)C)c(O)c(O)c(C=O)c2c1O [Gossypol] |  |  | inactive | active | IC50 (HT-29 cells; Homo sapiens, HT-29, 0.5 h): 16.5 µM |
| Nc1ccccc1C(=O)CC(N)C(=O)O (stereo not drawn) [Kynurenine] |  |  | tested negative | tested negative |  |
| C[S+](=O)([O-])c1ccc(Cn2c3c(c4cc(F)cc(F)c42)CCCC3CC(=O)O)cc1 [L-670596] |  |  |  |  | IC50 (MIA PaCa-2 cells; Homo sapiens, MIA PaCa-2, retest of screen hits, 11-point dose response 0.77 nM to 45.8 μM, read-out: ALDEFLUOR IC50 MIA PaCa2): ~10 µM; IC50 (MIA PaCa-2 cells; retest of screen hits, 11-point dose response 0.77 nM to 45.8 μM, read-out: ALDEFLUOR IC50 MIA PaCa2): 10.8 µM |
| C#CCN(C)Cc1ccccc1 [Pargyline] |  |  | inactive | active | IC50 (MIA PaCa-2 cells; Homo sapiens, MIA PaCa-2, fully automated protocol-2 with two washes, read-out: IC50 of BAA signal reduction, automated protocol): ~5 µM; IC50 (HT-29 cells; [3]): 33.5 µM |
| CC(C)N(C(=O)CCl)c1ccccc1 [Propachlor] |  |  |  |  | IC50 (MIA PaCa-2 cells; Homo sapiens, MIA PaCa-2, read-out: ALDEFLUOR IC50 MIA PaCa2): 0.3 µM |
| O=C1Nc2ccccc2C1=O [indoline-2,3-dione] |  |  |  |  | IC50 (MIA PaCa-2 cells; [1]): 12 µM; IC50 (HT-29 cells; [3]): 17.8 µM |
| CVT-10216 |  |  | tested negative | tested negative |  |

— PMC5271370, “A High-Content Assay Enables the Automated Screening and Identification of Small Molecules with Specific ALDH1A1-Inhibitory Activity” (PLoS ONE, 2017)
